Laboratory results: patent US4613588A, “Benzaldehyde and 4,6-O-benzylidene-D-glucose for alleviating pain” (Kaken Pharmaceutical Co. Ltd., priority 1984, dated 1986)
Where two headings read alike, the source gives them in different places.

Tests used:
[1] = molecular target: T1, dipeptidylcarboxypeptidase (enkephalinase A) (Macaca fascicularis, UniProt G7NZK8); experiment: Enkephalinase A inhibiting effect; assay type: biochemical; conditions: read-out: enzyme inhibiting effect on enkephalinase A
T1 construct: releases Tyr-Gly-Gly from [3H]Leu-enkephalin
T1 sequence (G7NZK8 2-750): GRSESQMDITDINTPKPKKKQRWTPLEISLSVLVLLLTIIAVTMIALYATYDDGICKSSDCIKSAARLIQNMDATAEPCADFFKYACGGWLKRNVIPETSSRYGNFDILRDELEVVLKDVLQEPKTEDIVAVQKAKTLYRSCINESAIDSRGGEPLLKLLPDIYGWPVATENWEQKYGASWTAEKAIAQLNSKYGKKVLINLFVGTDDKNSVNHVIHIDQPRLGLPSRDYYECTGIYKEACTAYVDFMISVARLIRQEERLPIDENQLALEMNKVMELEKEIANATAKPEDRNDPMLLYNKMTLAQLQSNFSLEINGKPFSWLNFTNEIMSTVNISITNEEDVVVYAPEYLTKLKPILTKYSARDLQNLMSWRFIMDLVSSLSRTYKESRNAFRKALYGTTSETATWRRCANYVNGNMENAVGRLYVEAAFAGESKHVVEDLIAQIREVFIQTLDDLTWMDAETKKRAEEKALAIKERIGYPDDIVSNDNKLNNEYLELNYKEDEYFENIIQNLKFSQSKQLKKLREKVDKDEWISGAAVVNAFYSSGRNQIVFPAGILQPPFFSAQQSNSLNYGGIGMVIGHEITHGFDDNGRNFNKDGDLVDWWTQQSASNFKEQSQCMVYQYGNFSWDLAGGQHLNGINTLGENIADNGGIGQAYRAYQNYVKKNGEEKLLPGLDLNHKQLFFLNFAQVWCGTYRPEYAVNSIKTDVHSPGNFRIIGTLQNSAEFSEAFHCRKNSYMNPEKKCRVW
Procedure: (§1) The cerebrum of Macaca Fascicularis was chopped using anatomical scissors, 3 volumes that of 25 mM tris-hydrochloric acid buffer (pH 7.7) was added thereto and the mixture homogenized. It was then ultracentrifuged (50,000×g), the supernatant was removed, and the obtained precipitants were treated and washed twice using the same buffer (these precipitates contained enkephalin decomposing enzymes in a form combined to the cell membrane).
(§2) Thereafter, 25 mM tris-hydrochloric acid buffer (pH 7.7) containing 1% of Triton X-100 was added to the precipitates to extract enkephalinase. […]
(§3) The obtained enkephalin decomposing enzymes were analyzed by acrylamide electrophoresis to find that they were single proteins respectively.
(§4) The enzymatic activity of the respective decomposing enzymes obtained above was measured by the qualitative and quantitative analyses of the decomposition products using [^3 H]-enkephalin or enkephalin as a substrate and employing Porapak Q (produced by Water Associates) column method, high-performance liquid chromatography (HPLC), silica gel thin layer autography, etc.
10 μl of 10 μCi [^3 H] […] Tyr-Gly-Gly was determined using a liquid scintillation counter. […]

aminopeptidase = experiment: Aminopeptidase (enkephalin decomposing enzyme) inhibiting effect; assay type: biochemical, Macaca Fascicularis
Procedure: as §1, §2, §3
as §4, with “etc. […]” for “etc.”

[2] = molecular target: T2, dipeptidylaminopeptidase (enkephalinase B) (Macaca fascicularis, UniProt A0A7N9C8Y6); experiment: Enkephalinase B inhibiting effect; assay type: biochemical
T2 construct: releases Tyr-Gly from enkephalin
T2 sequence (A0A7N9C8Y6 1-737): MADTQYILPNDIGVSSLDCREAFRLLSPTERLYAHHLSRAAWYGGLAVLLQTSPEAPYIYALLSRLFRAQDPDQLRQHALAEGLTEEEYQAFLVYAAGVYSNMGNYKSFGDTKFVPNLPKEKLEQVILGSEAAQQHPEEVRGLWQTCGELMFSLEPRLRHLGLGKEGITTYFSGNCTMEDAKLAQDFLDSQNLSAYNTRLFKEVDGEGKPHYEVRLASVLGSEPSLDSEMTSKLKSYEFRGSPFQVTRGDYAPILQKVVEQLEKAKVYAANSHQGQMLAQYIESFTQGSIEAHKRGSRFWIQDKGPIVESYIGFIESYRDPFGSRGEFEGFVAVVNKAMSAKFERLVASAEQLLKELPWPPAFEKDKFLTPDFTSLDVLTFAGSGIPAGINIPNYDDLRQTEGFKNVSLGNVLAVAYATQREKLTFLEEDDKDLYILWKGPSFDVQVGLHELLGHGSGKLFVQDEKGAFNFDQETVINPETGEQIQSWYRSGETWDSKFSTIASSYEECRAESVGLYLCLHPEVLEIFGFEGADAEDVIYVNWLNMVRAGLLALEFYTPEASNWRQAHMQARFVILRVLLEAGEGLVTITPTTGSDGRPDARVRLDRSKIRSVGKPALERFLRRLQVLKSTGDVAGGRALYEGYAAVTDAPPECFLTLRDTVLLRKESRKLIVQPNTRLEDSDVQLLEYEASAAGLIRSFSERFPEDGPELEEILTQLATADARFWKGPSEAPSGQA
Procedure: as §1, §2, §3
as §4, with “etc. […]” for “etc.”

[3] = molecular target: T3, angiotensin converting enzyme (Macaca fascicularis, UniProt A0A2K5VWQ5); experiment: Angiotensin converting enzyme inhibiting effect; assay type: biochemical
T3 sequence (A0A2K5VWQ5 31-1307): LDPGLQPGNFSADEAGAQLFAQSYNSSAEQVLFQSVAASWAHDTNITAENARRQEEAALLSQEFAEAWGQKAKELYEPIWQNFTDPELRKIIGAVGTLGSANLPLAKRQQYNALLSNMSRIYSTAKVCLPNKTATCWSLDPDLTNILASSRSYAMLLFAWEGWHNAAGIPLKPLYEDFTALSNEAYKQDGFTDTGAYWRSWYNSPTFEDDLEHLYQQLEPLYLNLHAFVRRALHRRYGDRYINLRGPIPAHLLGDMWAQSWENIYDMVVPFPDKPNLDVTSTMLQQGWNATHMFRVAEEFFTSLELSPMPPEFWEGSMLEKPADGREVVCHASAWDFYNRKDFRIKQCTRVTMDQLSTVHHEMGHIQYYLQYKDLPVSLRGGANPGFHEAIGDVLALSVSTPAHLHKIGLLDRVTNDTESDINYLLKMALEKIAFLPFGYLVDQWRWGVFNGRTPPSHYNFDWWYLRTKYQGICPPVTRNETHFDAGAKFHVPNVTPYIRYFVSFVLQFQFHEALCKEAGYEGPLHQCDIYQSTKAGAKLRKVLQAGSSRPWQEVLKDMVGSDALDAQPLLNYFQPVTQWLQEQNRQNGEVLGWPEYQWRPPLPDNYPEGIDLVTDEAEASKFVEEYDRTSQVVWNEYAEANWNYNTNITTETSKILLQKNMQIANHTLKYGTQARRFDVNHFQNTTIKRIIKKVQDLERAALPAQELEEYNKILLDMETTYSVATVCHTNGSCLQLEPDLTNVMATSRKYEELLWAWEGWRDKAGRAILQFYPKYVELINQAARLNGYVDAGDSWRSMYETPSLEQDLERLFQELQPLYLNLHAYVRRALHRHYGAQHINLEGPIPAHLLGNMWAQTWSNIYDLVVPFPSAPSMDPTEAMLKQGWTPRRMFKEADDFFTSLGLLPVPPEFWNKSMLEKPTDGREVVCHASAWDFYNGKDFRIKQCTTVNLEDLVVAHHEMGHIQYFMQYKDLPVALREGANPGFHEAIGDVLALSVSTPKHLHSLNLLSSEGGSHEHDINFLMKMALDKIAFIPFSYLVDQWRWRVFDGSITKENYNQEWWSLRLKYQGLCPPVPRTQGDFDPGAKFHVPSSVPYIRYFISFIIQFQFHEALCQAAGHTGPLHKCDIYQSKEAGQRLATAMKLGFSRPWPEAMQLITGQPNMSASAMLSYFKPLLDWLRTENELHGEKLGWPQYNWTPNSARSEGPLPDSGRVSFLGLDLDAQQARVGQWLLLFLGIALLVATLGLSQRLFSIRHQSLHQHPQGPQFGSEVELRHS
Procedure: as §1, §2, §3
as §4, with “etc. […]” for “etc.”

[4] = Acute toxicity by subcutaneous injection in rats; conditions: rat, in vivo, sc
Excerpt: Since both benzaldehyde and 4,6-O-benzylidene-D-glucose are substantially non-toxic a wide dosage range may be administered depending on the severity of the pain experienced. The acute toxicity of benzaldehyde and 4,6-O-benzylidene-D-glucose are 5 g/kg or higher and 4 g/kg or higher, respectively, when measured by subcutaneous injection in rats according to conventional toxicity procedures.

carcinomatous pain = experiment: Carcinomatous pain treating tests (clinical examples); assay type: in vivo, human; conditions: one patient
Procedure: Further, using benzaldehyde and 4,6-O-benzylidene-D-glucose the following carcinomatous pain treating tests were conducted.
After hospitalization, 25 mg benzaldehyde tablets (enteric tablets containing benzaldehyde prepared in the above-described Formulation Example 5) were administered at a dosage of 5 tablets, 4 times a day.
Since variety of chemotherapeutics were not administered because there was a threat of strong side effects, the sole administration of 4,6-O-benzylidene-D-glucose was started in such a way that 1,200 mg of a freeze dried preparation thereof was dissolved in 100 ml of physiological saline and administered i.v. at a rate of once a day (time required being ca. 10 minutes).

[5] = Japanese Patent Application Laid-Open No. 108027/1977 and No. 70428/1979; cited from earlier work

SMILES | inhibition at 1200 µg/mL ([1]; 1.2 mg/ml) [%] | enzyme inhibiting effect on aminopeptidase (aminopeptidase; 1.2 mg/ml) | enzyme inhibiting effect on enkephalinase B ([2]; 1.2 mg/ml) | enzyme inhibiting effect on angiotensin converting enzyme ([3]; 1.2 mg/ml) | LD50 [4] [mg/kg] | pain (carcinomatous pain; gastric cancer metastasis to bone, 1,200 mg i.v. once a day, 17th to 18th day) | tumor condition by bone scintillation (carcinomatous pain; gastric cancer metastasis to bone, 1,200 mg i.v. once a day, 26th day, versus before administration) | mobility (carcinomatous pain; gastric cancer metastasis to bone, 1,200 mg i.v. once a day, from 10th day) | carcinostatic effect [5] | inhibition at 1000 µg/mL [1] [%] | enzyme inhibiting effect on aminopeptidase (aminopeptidase; 1 mg/ml) | enzyme inhibiting effect on enkephalinase B ([2]; 1 mg/ml) | enzyme inhibiting effect on angiotensin converting enzyme ([3]; 1 mg/ml) | LD50 ([4]; subcutaneous injection, rats, read-out: acute toxicity) [mg/kg] | pain (subjective symptom) (carcinomatous pain; mandible cancer relapse, 25 mg enteric tablets (Formulation Example 5), 5 tablets 4 times a day, oral, from 5th day) | carcinoma size by X-ray examination (carcinomatous pain; mandible cancer relapse, 25 mg enteric tablets, 5 tablets 4 times a day, oral) | pain (subjective symptom) (carcinomatous pain; mandible cancer relapse, 25 mg enteric tablets, 5 tablets 4 times a day, oral, 7th day)
OC1O[C@@H]2COC(c3ccccc3)O[C@H]2[C@H](O)[C@H]1O (stereo partly drawn) [4,6-O-benzylidene-D-glucose] | 81 | did not exhibit an enzyme inhibiting effect | did not exhibit an enzyme inhibiting effect | did not exhibit an enzyme inhibiting effect | ≥ 4000 | the pain almost disappeared | the tumor condition was the same | became able to sit on bed | known to have carcinostatic effect | – | – | – | – | – | – | – | –
O=Cc1ccccc1 [benzaldehyde] | – | – | – | – | – | – | – | – | known to have carcinostatic effect | 99 | did not exhibit an enzyme inhibiting effect | did not exhibit an enzyme inhibiting effect | did not exhibit an enzyme inhibiting effect | ≥ 5000 | the pain was eased | did not reduce in size | almost no pain
